US10590454B2, “Methods of preventing and removing trisulfide bonds” (Biogen MA Inc., priority 2011, dated 2020)

Assays:
[1] = tested on: cysteine degradation (release of hydrogen sulfide); assay: Release of hydrogen sulfide from cysteine-containing medium with inhibitors of cysteine degradation; conditions: cell-culture medium, inhibitor 17.7 mM (1:1 to cysteine), 24 hours
Experimental: In order to test the effect of cysteine degradation inhibitors on release of hydrogen sulfide in cell-culture medium, various inhibitors were added to the medium at the concentration of 17.7 mM, which represents a 1:1 ratio to the concentration of cysteine in the medium. Released hydrogen sulfide concentration was measured after 24 hours of incubation. Briefly, 50 ml of medium was incubated overnight in a closed 100 ml bottle. The headspace was therefore equal to the liquid volume of the container. A Jerome 631-X hydrogen sulfide detector was connected to a short piece of silicon tubing to minimize holdup volume in the instrument. The end of the tubing was inserted into the headspace of the medium-containing bottle, and the Jerome 631-X detector sampled the headspace immediately after opening the bottle.
The effect of pyruvate on release of hydrogen sulfide from cysteine degradation was further tested. The experiments were performed as described above in Example 9. Concentration of released hydrogen sulfide was measured after incubation from solutions containing 17.7 mM cysteine, plus 200 g/L glucose or subgroups of amino acids, in the absence or presence of pyruvate.
The effect of pyruvate on release of hydrogen sulfide from cysteine degradation was also tested in various cell-culture media, including feed liquid, IMDM and DMEM. All cysteine concentrations were normalized to that in the feed liquid. 17.7 mM pyruvate was added to the medium, which represents a 1:1 ratio of cysteine to pyruvate in the medium. The experiments were performed as described above for Example 9. […] Thus, pyruvate can reduce cysteine degradation and H2S release in a variety of compositions and decrease the number of trisulfide bonds.

[2] = Heat induced fragmentation, non-reducing capillary electrophoresis (CE-SDS); type: physicochemical; conditions: 70° C. for 3 minutes with iodoacetamide; compared to mAb-A-LT
Experimental: In these experiments, analysis of IgG1 mAb was performed by denaturing, non-reducing capillary electrophoresis in the presence of sodium dodecyl sulfate using an IgG Purity/Heterogeneity Assay Kit (# A10663) and ProteomeLab PA-800 instrument (Beckman Coulter). Samples (200 μg) were prepared by heating to 70° C. for 3 minutes in the presence of iodoacetamide, 1 mM SDS and a 10 kDa standard essentially as per manufacturer's instructions (Protocol A10424-AC) and separated for 35 min in a bare fused silica capillary with detection at 220 nm. The results, shown in FIGS. 1A and 1B show an increased level of fragmentation following sample preparation for non-reducing electrophoresis. The electrophoretic migration pattern of the single most abundant fragment was consistent with the loss of one light chain (L) from the intact mAb with the simultaneous generation of a species consisting of two heavy chains and one light chain (HHL fragment). This phenomenon was then used to rapidly screen for conditions that influence trisulfide content in IgG1 mAbs. In this screen, non-reducing electrophoresis was used as a rapid assay for detection of trisulfide bonds.

[3] = Differential scanning calorimetry; type: physicochemical; conditions: preparations with low or high H-L trisulfide or treated with 1 mM cysteine; 25° C. to 100° C.
Experimental: The DSC was performed using a MicroCal capillary VP-DSC system (Northampton, Mass., USA) with Origin VPViewer2000 v2.0.64 software. Sample concentration was 0.5 mg/mL in 50 mM sodium phosphate, 100 mM NaCl, pH 6.0. Thermograms were generated by scanning temperature from 25° C. to 100° C. at a rate of 2° C./min.

[4] = Stability of trisulfides in vivo in rats after intraperitoneal injection; conditions: rat, 100 mg/kg intraperitoneally, based on column recoveries
Experimental: The samples were incubated with 100 μL of the resin for 2 h at room temperature with mild agitation. The resin was then washed six times with 0.5 mL of PBS and six times with 0.5 mL of 25 mM sodium phosphate, 100 mM NaCl, pH 5.5, after which the bound antibody was eluted with 25 mM sodium phosphate, pH 2.8, 100-mM NaCl. […] Portions of the serum (750 μL for the 24-h point, and 1050 μL for the 72-h point) were subjected to IgSelect purification using 150 μL of IgSelect (protocol described above).

Molecule	Release of hydrogen sulfide [1]	also measured
O=CC(O)CO (racemic) [DL-glyceraldehyde]	functionally stopped release of hydrogen sulfide	
CCOC(=O)C(C)=O [ethyl pyruvate]	functionally stopped release of hydrogen sulfide	
O=CC(=O)O [glyoxylic acid]	functionally stopped release of hydrogen sulfide	
COC(=O)C(C)=O [methyl pyruvate]	functionally stopped release of hydrogen sulfide	
mAb1: anti-LINGO-1 antibody Li81, human IgG1 produced in CHO cells		Sensitivity to heat treatment (fragmentation to HHL species) [2]: increased sensitivity to extreme heat treatment; Transition temperature profiles [3]: no differences in transition temperature profiles detected; Level of mAb1 in the serum ([4]; after 24 h): 850 µg/mL; Level of mAb1 in the serum ([4]; after 72 h): 700 µg/mL
